From PMC3885247 (Journal of medicinal chemistry, 2008)

Assays:
pcDHFR [1] = biological target: T1, pcDHFR (Pneumocystis carinii, UniProt P16184); settings: previously reported quinazolines; cited from earlier work
T1 sequence (P16184 1-206): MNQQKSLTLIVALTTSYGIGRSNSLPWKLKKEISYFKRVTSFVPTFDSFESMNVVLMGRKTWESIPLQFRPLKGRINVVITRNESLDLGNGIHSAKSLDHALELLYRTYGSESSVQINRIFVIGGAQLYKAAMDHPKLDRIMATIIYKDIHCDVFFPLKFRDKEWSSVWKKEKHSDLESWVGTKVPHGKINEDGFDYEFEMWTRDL

tgDHFR [2] = biological target: T2, tgDHFR (Toxoplasma gondii, UniProt Q07422); settings: previously reported quinazolines; cited from earlier work
T2 sequence (Q07422 1-610): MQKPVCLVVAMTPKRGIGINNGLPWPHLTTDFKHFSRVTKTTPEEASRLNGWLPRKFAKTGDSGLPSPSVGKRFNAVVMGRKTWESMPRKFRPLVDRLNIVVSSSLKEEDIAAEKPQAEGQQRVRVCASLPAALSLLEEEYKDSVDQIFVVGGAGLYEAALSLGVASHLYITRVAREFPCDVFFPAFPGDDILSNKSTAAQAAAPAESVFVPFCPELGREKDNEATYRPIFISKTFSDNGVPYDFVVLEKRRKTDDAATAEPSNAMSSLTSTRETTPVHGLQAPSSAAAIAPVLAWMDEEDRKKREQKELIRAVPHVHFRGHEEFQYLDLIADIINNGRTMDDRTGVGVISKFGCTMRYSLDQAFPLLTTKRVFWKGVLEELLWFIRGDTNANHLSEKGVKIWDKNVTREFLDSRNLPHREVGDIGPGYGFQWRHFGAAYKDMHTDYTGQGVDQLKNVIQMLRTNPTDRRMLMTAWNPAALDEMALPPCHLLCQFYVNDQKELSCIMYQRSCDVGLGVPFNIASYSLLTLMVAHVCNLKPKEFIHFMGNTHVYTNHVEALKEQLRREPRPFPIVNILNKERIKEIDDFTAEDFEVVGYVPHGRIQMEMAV

pcDHFR [3] = biological target: T1, pcDHFR; assay: Inhibition of P. carinii DHFR; format: biochemical
rlDHFR = biological target: T3, rlDHFR (Rattus norvegicus, UniProt Q920D2); assay: Inhibition of rat liver DHFR; format: biochemical
T3 sequence (Q920D2 1-187): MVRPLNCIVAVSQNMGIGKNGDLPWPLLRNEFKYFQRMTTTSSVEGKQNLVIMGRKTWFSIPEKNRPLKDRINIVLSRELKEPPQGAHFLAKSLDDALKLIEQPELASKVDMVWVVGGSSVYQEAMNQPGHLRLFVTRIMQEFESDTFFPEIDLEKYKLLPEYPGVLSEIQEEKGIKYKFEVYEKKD

tgDHFR [4] = biological target: T2, tgDHFR; assay: biochemical
maDHFR = biological target: T4, maDHFR (Mycobacterium avium, UniProt O30463); assay: Inhibition of M. avium DHFR; format: biochemical
T4 sequence (O30463 1-181): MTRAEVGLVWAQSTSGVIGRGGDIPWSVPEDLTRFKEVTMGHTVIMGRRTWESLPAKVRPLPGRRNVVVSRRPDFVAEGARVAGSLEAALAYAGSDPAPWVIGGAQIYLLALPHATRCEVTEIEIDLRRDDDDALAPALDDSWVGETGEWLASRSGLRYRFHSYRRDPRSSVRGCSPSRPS

In the case of `COc1ccc(OC)c(CNc2ccc3nc(N)nc(N)c3c2)c1` [Compound 3], the Selectivity ratio rl/pc (pcDHFR [1]) is listed as 0.2 and the Selectivity ratio rl/tg (tgDHFR [2]) is listed as 7.

In the case of `COc1ccc(OC)c(CN(CC2CC2)c2ccc3nc(N)nc(N)c3c2)c1` [Compound 12, 2,4-Diamino-6-[N-(2,5-dimethoxybenzyl)-N-cyclopropylmethylamino]quinazoline], the IC50 (pcDHFR [3]) is reported as 0.025 µM, the “Selectivity ratio rl/pc (IC50 rlDHFR/IC50 pcDHFR)” value (pcDHFR [3]) is reported as 0.4 and the IC50 (rlDHFR) is reported as 0.0096 µM. The IC50 (tgDHFR [4]) was 0.0073 µM, the “Selectivity ratio rl/tg (IC50 rlDHFR/IC50 tgDHFR)” value (tgDHFR [4]) was 1.3 and the IC50 (maDHFR) was 0.016 µM. For the same molecule, the “Fold decrease in potency against maDHFR compared to 10” value (maDHFR; comparator 10) was 5 fold.
